Laboratory results from patent publication US9012439B2, “Use of electrophilic compounds for inducing platelet production or maintaining platelet function” (University of Rochester, priority 2007, dated 2015).

Tests used:
Meg-01-derived platelets = test: Collagen-induced shape change of Meg-01-derived platelets; type: cell-based, human; details: platelets from Meg-01 cells treated 10 μM for 24 h; collagen 10 μg/mL, 15 min
Experimental: (§1) Platelets were isolated from the Meg-01 cells and human blood as described above. Both normal human platelets and Meg-01-derived platelets were stained with annexin V-FITC then treated with 10 μg/ml of collagen for 15 min. Cells were analyzed for collagen-induced annexin V binding and change in size and shape by flow cytometry. Platelets were isolated from primary human megakaryocytes and primary mouse megakaryocytes as described above. Primary human platelets were stained with CD41-FITC and primary mouse platelets were stained with CD61-PE then treated with 10 μg/mL of collagen. Cells were analyzed for collagen-induced CD61/CD41 upregulation and change in size and shape using flow cytometry.

Meg-01 cells [1] = test: Meg-01 morphology (phalloidin f-actin staining, transmission electron microscopy); type: cell-based, human; details: 10 μM
Experimental: Cells were fixed and permeabilized with 0.1% triton-100 for 1 h at room temperature (RT). Subsequently, cells were blocked with 1% bovin serum albumin (BSA) in PBS-Tween 20 (0.1%) for 1 h at RT then stained with phalloidin-Alexa Fluor 488 (Invitrogen, 1:200) at RT for 2 h. Cells were mounted and visualized using an Olympus BX51 light microscope (Olympus, Melville, N.Y.).
Cells were fixed for 4 h in 2.5% glutaraldehyde in 0.1 M sodium cacodylate buffer. Post-fixation cells were placed in 1% osmium tetroxide in phosphate buffer, dehydrated in ethanol, embedded in EPON/Araldite epoxy resin and analyzed on a Hitachi H-7100 electron microscope.

[2] = system: mouse bone marrow culture-derived platelets; test: Function of mouse bone marrow culture-derived platelets (collagen response, spreading on fibrinogen); type: cell-based, mouse (C57BL/6)
Experimental: as §1
Coverslips were coated with 100 μg/mL of fibrinogen for 1 h and blocked with 0.5 mg/mL BSA for 1 h. Platelets were added to the fibrinogen-coated coverslips in Tyrode's buffer and fixed with glutaraldehyde, post-fixed with 1% osmium tetroxide, and dehydrated. Platelets were then coated with a gold/palladium film. Images were acquired using the Zeiss-Leo 982 FE-SEM (scanning electron microscope).

[3] = system: primary human megakaryocytes; test: Reactive oxygen species production in primary human megakaryocytes; type: cell-based; details: 1 h and 6 h
Experimental: Human CD34+ cord blood cells were obtained from the National Disease Research Interchange (NDRI, Philadelphia, Pa.). Cells were plated at 2.5×10^5 cells per well in a 12-well plate and cultured in serum-free medium as previously described (Zeuner et al., “Chemotherapy-induced Thrombocytopenia Derives from the Selective Death of Megakaryocyte Progenitors and Can Be Rescued by Stem Cell Factor,” Cancer Res 67:4767-4773 (2007), which is hereby incorporated by reference in its entirety) and supplemented with 100 ng/mL of rhTPO. After 14 days in culture, megakaryocytes were identified by staining with a CD61-FITC antibody and analyzed on a BD Biosciences FACSCalibur flow cytometer. Data were analyzed using FlowJo software (Treestar, Ashland, Oreg.). Cell images were captured using an inverted microscope (Olympus IX81). Ten μM carboxy-H2DCFDA was added to cells for 20 min at RT. The cells were washed and immediately analyzed by flow cytometry. Five μM of MitoSOX Red dye in HBSS containing Mg^2+ and Ca^2+ was added to the cells for 15 min at 37° C. The cells were washed in HBSS and analyzed by flow cytometry.

Meg-01 cells [4] = test: DNA content analysis of Meg-01 cells; type: cell-based, human; details: 10 μM
Experimental: (§2) Cells were fixed in 95% ethanol, treated with RNAse (Sigma) followed by 20 μg/mL propidium iodide (Sigma) to stain DNA, and analyzed by flow cytometry.

[5] = system: primary mouse megakaryocytes; test: DNA content analysis of primary mouse megakaryocytes; type: cell-based
Experimental: Bone marrow was isolated from the femora of male C57BL/6 mice (Jackson Laboratories, Bar Harbor, Me.) and plated at a concentration of 1×10^6 cells per well in 12-well plates in IMDM (Iscove's Modified Dulbecco's Media, Invitrogen) with 20% BIT 9500 (BSA, insulin, transferrin) and supplemented with 100 ng/mL of rhTPO. Cells were cultured for 5 days, following which 15d-PGJ2 (10 μM) was added to the culture medium for 24 h. On the sixth day, cells were examined by phase-contrast microscopy using an inverted microscope (Olympus IX81) and images were captured using SPOT RT software (New Hyde Park, N.Y.). Megakaryocytes were identified by preincubating with anti-mouse CD16/32 (FcγR-blocking antibody) and then incubating with PE-conjugated hamster anti-mouse CD41 antibody.
as §2

For `CCCCCC=CC=C1C(=O)C=C[C@@H]1CC=CCCCC(=O)O` [15d-PGJ2, 15-deoxy-Δ^12,14 prostaglandin J2], the “platelets that decreased their size and increased their granularity in response to collagen” value (Meg-01-derived platelets) was 68%, the “morphological changes by f-actin (phalloidin) staining” value (Meg-01 cells [1]; within 1-2 h) was “Morphological changes, characteristic of megakaryopoiesis” and the “structural characteristics by transmission electron microscopy” value (Meg-01 cells [1]; within 24 h) was “structural characteristics consistent with differentiating cells”. For the same molecule, the “platelet spreading on fibrinogen” value ([2]; mouse bone marrow culture-derived platelets, fibrinogen coated slide) was “spread in response to fibrinogen”, the “geometric mean fluorescence intensity of surface CD41, after collagen treatment” value ([2]; platelets from mouse bone marrow cultures treated with 15d-PGJ2, collagen 10 μg/mL, 15 min) was 20 and the “geometric mean fluorescence intensity of surface CD41, before collagen” value ([2]; platelets from mouse bone marrow cultures treated with 15d-PGJ2, no collagen) was 9. For the same molecule, the “percentage of ROS positive cells, Mitosox Red staining” value [3] was “increase in the percentage of ROS positive cells”, the “percentage of ROS positive cells, carboxy-H2DCFDA staining” value [3] was “increase in the percentage of ROS positive cells” and the DNA content (Meg-01 cells [4]; 24 h and 48 h) was “unchanged”. For the same molecule, the DNA content (Meg-01 cells [4]; 72 h) was “increased DNA content”, the “primary mouse megakaryocyte ploidy” value ([5]; by 24 h) was “enhanced primary mouse megakaryocyte ploidy” and the DNA content ([5]; primary mouse megakaryocytes, 10 μM, 24 h) was “increased DNA content”.
